According to US6172205A, “Synthetic process toward total synthesis of eleutherobin and its analogues and uses thereof” (The Trustees of Columbia in the City of New York, priority 1998, dated 2001):
Values joined by “and” are separate entries in the source; they are usually repeats but may differ in a detail not shown here. Equal entries are not always repeated. “Also recorded” adds a separate entry of the source. Where two headings read alike, the source gives them in different places.

What was measured:
[1] = tested on: tubulin / microtubule protein; assay: Tubulin polymerization by turbidity at 350 nm in the absence of GTP; format: biochemical, calf; details: 10 μM; for tubulin polymerization (in words): 37 °C, absence of GTP
Method: (§1) Eleutherobin and its derivatives were synthesized as described (18,19). Taxol was obtained from the Drug Development Branch, National Cancer Institute (Bethesda, Md.). All compounds were dissolved in dimethyl sulfoxide (Sigma Chemical Co., St. Louis, Mo.) at stock concentrations of 5 mM and stored at -20° C. All control samples contained an equal volume of DMSO. GTP was obtained from Sigma Chemical Co. And dissolved in sterile distilled water at a concentration of 10 mM and stored at -20° C. Microtubule protein was purified from calf brains by two cycles of temperature-dependent assembly and disassembly (20) and stored in liquid nitrogen prior to use. The anti-mouse β-tubulin monoclonal antibody T-4026 was obtained from Sigma Chemical Co.
The ability of each compound to polymerize tubulin was evaluated by recording the change in turbidity of microtubule protein at 350 nm for 80 min in a spectrophotometer (UVIKON, Research Instruments Int., SD, Calif.). One mg of purified microtubule protein was diluted in assembly buffer containing 0.1 M MES, 1 mM EGTA, 0.5 mM MgCl2 and 3 M glycerol, pH 6.6. All compounds were evaluated at a concentration of 10 μM at 37° C. […] Microtubule stability was assessed by the addition of 10 mM Ca^++. changes from t=0-10 min were used to calculate initial slopes from the linear portion of each curve. These values were used to calculate the activity of each compound (relative to the activity of Taxol which was assigned a value of 100%).
The polymerization activity of these compounds was also assessed by determining the slope of the linear portion of each curve at A350 nm (t=0-10 min), and expressing this relative to Taxol (which was assigned a value of 100% (FIG. 8). The order of activity of eleutherobin and derivatives using this method, corroborates the results obtained from cytotoxicity studies.

P-glycoprotein = P-glycoprotein substrate behaviour inferred from resistance of SKVBL cells; format: cell-based, human
Method: (§2) Human non-small cell lung carcinoma cells, A549, were maintained in RPMI 1640 containing 10% fetal bovine serum and 1% penicillin-streptomycin (Gibco Laboratories, Grand Island N.Y.) at 37° C. in 7% CO2. The Taxol-resistant cell line A549-T12 was selected for resistance to Taxol and maintained in a final concentration of 12 nM drug (21). Human ovarian carcinoma cells SKOV3 and the MDR variant SKVBL (obtained from Dr. V. Ling) were maintained in α-mem plus ribonucleotides, deoxynucleotides, 15% fetal bovine serum and 1% penicillin-streptomycin (Gibco Laboratories) at 37° C. in 5% CO2. SKVBL cells were maintained in […] vinblastine (Sigma Chemical Co.).
(§3) Taxol-resistant and sensitive cell lines were seeded into 12-well plates at a density of 5×10^4 cells per well and allowed a period of 12 h for attachment prior to treatment. Cells were exposed to 10-fold serial dilutions of each compound (10^-10 to 10^-6 M) for 72 h. Cells were then trypsinized and counted (Coulter counter model ZF0031, Coulter Corp., Miami, Fla.). The IC50 was determined by plotting cell number against log of the drug concentration and this was used to determine the concentration of compound resulting in 50% growth inhibition compared to untreated cells. Each cell line was assayed in a minimum of 3 independent experiments with each compound and the results expressed as the mean IC50.
(§4) The cytotoxic efficacy of eleutherobin and its derivatives (FIG. 6) was evaluated in two drug sensitive human cancer cell lines and their Taxol-resistant counterparts. The results are summarized in Table I in order of decreasing potency. […] The Taxol-resistant cell line SKVBL overexpresses high levels of P-glycoprotein (22). […] The only difference between the two agents is the enantiomeric relationship in the carbohydrate (2'-acetylarabinose) sector (FIG. 6). […] This cell line expressed high levels of MDR1 resulting in Taxol-resistance equal or greater than 1666 -fold compared to the Taxol-sensitive SKOV3 cell line.

[2] = tested on: cellular microtubules, NIH 3T3 cells; assay: Microtubule bundle formation by immunofluorescence; format: cell-based; details: 2 μM, 5.5 h; for microtubule bundle formation (in words): 37 °C
Method: FIG. 9 immunofluorescence images NIH3T3 cells labeled with β-tubulin antibody following exposure to different drugs. A)DMSO; B)2 μM Taxol; C)2 μM eleutherobin; D)2 μM neo-eleutherobin; E)2 μM SKBII.294; F)2 μM SKBIII.13.
Illustrates the effects of eleutherobin and its derivatives on the morphology of cellular microtubules following exposure of cells to 2 μM of each compound for 5.5 h at 37° C. […] The number of micotic asters correlated with the extent of microtubule bundling in interphase cells.
(§5) NIH 3T3 cells were grown to subconfluency on glass converslips in 35 mm plastic petri dishes. Cells were exposed to 2 μM of Taxol and each of the experimental compounds for 5.5 h at 37° C., rinsed twice in PBS and extracted with 0.5% Triton-X-100 in microtubule stabilizing buffer (PEM) (100 mM PIPES, 2 mM EGTA and 2 mM MgCl2, pH 6.8) for 4 min. Following a wash in PEM, the cells were fixed for 40 min at room temperature in 3% formaldehyde in PEM followed by incubation in 0.1 M glycine in PBS for 10 min and washing (four times) in PEM containing 5 μM EGTA. Following blocking in 20% normal goat serum (NGS) for 30 min at room temperature, cells were incubated for 1 h at 37° C. with a 1:100 dilution of β-tubulin mAb diluted in 10% NGS, washed twice in 1% BSA, once in PBS and three times in 1% BSA. Cells were then incubated in a 1:200 dilution of the secondary fluorophore antibody, IndocarbocyanineCY3 (Jackson Immunoresearch Laboratories Inc., Pa.) in 20% NGS for 20 min at room temperature. Finally cells were washed three times in 1% BSA and the dried slides mounted in 30% glycerol in PBS containing […]-phenylene diamine (1 mg/ml). Fixed slides were examined using a Zeiss Axioskop microscope.

[3] = tested on: Human ovarian carcinoma cells SKOV3; assay: Cytotoxicity by counting cells after 72 h, Taxol-sensitive cells; format: cell-based
Method: as §2, §3
(§6) ^a Cytotoxicity determined by counting cells after 72 h drug exposure.

[4] = tested on: Human non-small cell lung carcinoma cells, A549; assay: as above; format: cell-based; details: for IC50: Homo sapiens
Method: Taxol-resistant and sensitive cell lines were seeded into 12-well plates at a density of 5×10^4 cells per well and allowed a period of 12 h for attachment prior to treatment. […] Cells were then trypsinized and counted (Coulter counter model ZF0031, Coulter Corp., Miami, Fla.).

[5] = tested on: SKVBL (MDR variant of SKOV3); assay: Cytotoxicity by counting cells after 72 h, MDR variant cells; format: cell-based, human; details: for IC50: Homo sapiens, SK-OV-3, Ovarian Carcinoma SKOV3, Resistant (SKVBL), 72 h, mean of at least three independent experiments; for cross-resistance in SKVBL (in words): MDR1 expressing cells, high P-glycoprotein; for fold resistance relative to the parental cell line: SKVBL vs SKOV3
Method: as §2, §3, §4, §6

[6] = tested on: A549-T12 (Taxol-resistant A549); assay: Cytotoxicity by counting cells after 72 h, Taxol-resistant cells; format: cell-based, human; details: for fold resistance relative to the parental cell line: A549-T12 vs A549, 4320 min; for IC50: Homo sapiens, Lung Carcinoma A549, Resistant (A549-T12), 72 h, mean of at least three independent experiments; for cross-resistance in A549-T12 (in words): Taxol-resistant, not expressing P-glycoprotein
Method: as §2, §3, §4, §6

microtubule protein = assay: Stability of microtubules against Ca++-induced depolymerization; format: biochemical, calf; details: 10 mM CaCl2
Method: as §1
(§7) The ability of each compound to polymerize tubulin was evaluated by recording the change in turbidity of microtubule protein at 350 nm for 80 min in a spectrophotometer (UVIKON, Research Instruments Int., SD, Calif.). One mg of purified microtubule protein was diluted in assembly buffer containing 0.1 M MES, 1 mM EGTA, 0.5 mM MgCl2 and 3 M glycerol, pH 6.6. All compounds were evaluated at a concentration of 10 μM at 37° C. GTP was used at a final concentration of 1 mM. Microtubule stability was assessed by the addition of 10 mM Ca^++. changes from t=0-10 min were used to calculate initial slopes from the linear portion of each curve. These values were used to calculate the activity of each compound (relative to the activity of Taxol which was assigned a value of 100%).
The ability of each compound to polymerize and/or stabilize microtubules was assessed (FIG. 7). To investigate whether eleutherobin and its derivatives shared the microtubule stabilizing properties of Taxol, 10 mM CaCl2 was added to each sample after maximum microtubule polymerization occurred, and the effects on turbidity recorded spectrophotometrically. A positive control was included in which 1 mM GTP was used to confirm the ability of GTP-stabilized microtubules to undergo Ca^++ induced depolymerization.
The ability of this compound to stabilize microtubules formed in the presence of GTP was examined. After a period of 15 min, 10 mM Ca^++ was added and the change in turbidity recorded.

[7] = Overall biological activity, all parameters tested
Method: as §3, §7, §5

[8] = Solubility compared to eleutherobin; format: physicochemical
[9] = sensitive cell lines (A549, SKOV3)

SMILES	microtubule polymerization activity relative to eleutherobin [1] [%]	P-glycoprotein substrate (in words) (P-glycoprotein)	microtubule bundle formation (in words) [2]	IC50 ([3]; SK-OV-3, 72 h) [nM]	IC50 ([4]; A549, 72 h) [nM]	IC50 [5] [nM]	cross-resistance in SKVBL (in words) [5]	fold resistance relative to the parental cell line [6]	IC50 [6] [nM]	cross-resistance in A549-T12 (in words) [6]	stabilization against Ca++-induced depolymerization (in words) (microtubule protein)	biological activity (in words) [7]	cytotoxicity (in words) [4, 9]	fold resistance relative to the parental cell line [5] [fold]	other results
CO[C@]12C=C[C@](C)(O1)[C@@H](OC(=O)/C=C/c1cn(C)cn1)C[C@H]1C(C)=CC[C@H](C(C)C)[C@H]1C=C2CO[C@H]1OC[C@H](O)[C@H](O)[C@H]1OC(C)=O [Neo-Eleutherobin]	69	excellent substrates for P-glycoprotein	the extent of bundling was reduced	134	125	> 1000	exhibited cross-resistance in an MDR1 expressing cell line; also recorded: demonstrated cross-resistance	1.2 fold	146	neither eleutherobin nor neo-eleutherobin displayed cross-resistance; also recorded: neither of these compounds showed cross-resistance	the microtubules formed also resisted Ca^++ -induced depolymerization	less active than eleutherobin in all of the parameters examined	–	–	multiple asters in mitotic cells ([2]; data not shown): also seen in eleutherobin and neo-eleutherobin-treated cells; fold less active / less cytotoxic than eleutherobin [4, 9]: 20 fold and 14-20 fold
CO[C@]12C=C[C@@H]3[C@@H](C(C)C)CC=C(C)[C@@H]3C[C@H](OC(=O)/C=C/c3cn(C)cn3)[C@](C)(C=C1)O2 [SKBII.296]	54	considerably less attractive for P-glycoprotein compared to eleutherobin and neo-eleutherobin	reduced bundle formation in cultured cells; also recorded: induced less bundle formation than neo-eleutherobin	1630	400	1350	no cross resistance to SKVBL cells	10 fold	4000	considerable cross-resistance	–	–	less cytotoxic than either eleutherobin or neo-eleutherobin	0.8	solubility (in words) [8]: reduced solubility compared to eleutherobin
CO[C@]12C=C[C@](C)(O1)[C@@H](O)C[C@H]1C(C)=CC[C@H](C(C)C)[C@H]1C=C2CO[C@@H]1OC[C@@H](O)[C@@H](O)[C@@H]1O [SKBIII.13]	–	–	a fine microtubule network without bundle formation	–	–	–	–	–	–	–	unable to stabilize GTP-polymerized microtubules against Ca^++ induced depolymerization	basically inactive by all parameters tested	its cytotoxicity is greatly reduced	–	tubulin polymerization (in words) [1]: inactive in tubulin polymerization assays; tubulin polymerization (in words) ([1]; listed as SKBII.13): forfeited the ability to polymerize microtubules; IC50 ([3]; SK-OV-3, Ovarian Carcinoma SKOV3, Sensitive, 72 h, mean of at least three independent experiments, read-out: IC50): > 5000 nM; IC50 ([4]; Lung Carcinoma A549, Sensitive, 72 h, mean of at least three independent experiments, read-out: IC50): 4150 nM; biological activity (in words) ([7]; listed as SKBII.13): biologically inactive
CC(=O)O[C@H]1C(=O)[C@@]2(C)[C@H]([C@H](OC(=O)c3ccccc3)[C@]3(O)C[C@H](OC(=O)[C@H](O)[C@@H](NC(=O)c4ccccc4)c4ccccc4)C(C)=C1C3(C)C)[C@]1(OC(C)=O)CO[C@@H]1C[C@@H]2O [Taxol, reference compound]	–	excellent substrates for P-glycoprotein	identical to that seen in Taxol-treated cells	3	2	> 5000	–	7 fold and 7.1 fold	14.2	–	stabilized microtubules against Ca^++ -induced depolymerization	–	–	≥ 1666	–
